Laboratory results: US11993574B2, “Pyrazole and imidazole compounds for inhibition of IL-17 and RORgamma” (REATA PHARMACEUTICALS, INC., priority 2018, dated 2024)

How the values were obtained:
Assay type in all cases: cell-based
[1] = tested on: Nrf2 transcription factor; test: AREc32 luciferase reporter assay; conditions: Homo sapiens; AREc32 cells, 19 hours; concentration required to increase GST ARE luciferase reporter activity by 2-fold; read-out: NRF2 ARE 2-Fold (EC2×)
From the text: A. AREc32 Luciferase Reporter Assay
The AREc32 luciferase reporter assay allows for quantitative assessment of the endogenous activity of the Nrt2 transcription factor in cultured mammalian cells. AREc32 cells are derived from MCF-7 human breast carcinoma cells that were stably transfected with a reporter construct that contains the firefly luciferase gene located downstream of eight copies of the rat GSTA2 antioxidant response element (ARE) sequence (Wang et al., 2006; Concept Life Sciences Integrated Discovery and Development Services Ltd (CLSIDDS)). Active Nrf2 binds to the ARE sequences and increases expression of the firefly luciferase gene. To assess the Nrf2-activating potential of the test compounds, AREc32 cells were plated in black […] plates at a density of 20,000 cells per well in triplicate in DMEM+10% FBS+0.8 mg/mL Geneticin and incubated at 37° C. with 5% CO2 in a humidified atmosphere. The next day, cells were treated with DMSO (vehicle) or test compound (concentration ranges of 0.4-200 nM or 3.9-2000 nM) for 19 hours. Luciferase activity was determined using the ONE-Glo Luciferase assay (Promega). The luminescence signal was measured on a BMG Pherastar microplate reader. The mean luminescence value from test compound-treated wells was normalized to that from DMSO-treated wells and was represented as fold-induction. Data were analyzed using GraphPad Prism version 6.00 for Windows, GraphPad Software, La Jolla Calif. USA. A non-linear regression curve with log (agonist) vs. response using a variable slope was used to fit the data. Where applicable, a maximum threshold value of 50-fold over DMSO was set. EC2× values were interpolated from the curve. EC2× corresponds to the concentration of test compound required to increase GST ARE Luciferase reporter activity by 2-fold.

[2] = biological target: T1, Human RAR-related Orphan Receptor Gamma (RORγ) (Homo sapiens, UniProt P51449); test: RORγ assay (GAL4-RORγ hybrid luciferase reporter, Indigo Biosciences); conditions: inverse-agonist activity, GAL4-RORγ reporter cells, 23 hours
T1 sequence (P51449 269-508 limits assumed): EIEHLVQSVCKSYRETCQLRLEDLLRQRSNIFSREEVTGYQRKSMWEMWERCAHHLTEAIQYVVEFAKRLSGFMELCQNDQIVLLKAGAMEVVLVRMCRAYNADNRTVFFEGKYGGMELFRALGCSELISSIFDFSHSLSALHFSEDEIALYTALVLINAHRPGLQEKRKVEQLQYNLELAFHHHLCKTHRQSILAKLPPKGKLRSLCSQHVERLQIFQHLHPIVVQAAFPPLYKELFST
From the text: B. RORγ Assay and Cell Viability
The RORγ assay system was purchased from Indigo Biosciences. This nuclear receptor assay utilizes a human cell line that has been engineered to express a hybrid form of the Human RAR-related Orphan Receptor Gamma (RORγ) at high levels. The N-terminal DNA binding domain (DBD) of the native RORγ receptor was substituted with the yeast GAL4-DBD to generate the GAL4-RORγ hybrid nuclear receptor. The reporter cell line is transfected with a plasmid that encodes the beetle luciferase gene under the control of the GAL4 upstream activating sequence (UAS). GAL4 binds to the UAS and increases transcription of downstream target genes. The GAL4-RORγ hybrid is constitutively active; therefore, the principle application of this reporter assay system is to screen test compounds to quantify inverse-agonist activities against human RORγ. Because the ligand binding domain (LBD) of RORγ is identical to the LBD of RORγt, this assay is an accurate surrogate for evaluating activity of experimental ligands against RORγt. To assess the RORγ inverse-agonist activity of the test compounds, reporter cells were plated in white 96-well plates in triplicate and were treated with DMSO (vehicle) or test compound (concentration ranges of 7.8-2000 nM) at 37° C. with 5% CO2 in a humidified atmosphere for 23 hours. After this incubation, luciferin was added to the wells and luciferase activity was determined by measuring the luminescence signal using a BMG Pherastar microplate reader. Viability was determined using the Live Cell Multiplex Assay (Indigo Biosciences). Values from test compound samples were normalized to those from DMSO-treated samples. Data were analyzed using GraphPad Prism version 6.00 for Windows (GraphPad Software, La Jolla Calif. USA). A non-linear regression analysis with log (inhibitor) vs. normalized response using a variable slope was applied to fit the data and determine the IC50 values for inhibition of RORγ and cell viability. Inhibition that is closely correlated with reduced viability is considered to be non-specific.

[3] = tested on: IL-17A; test: IL-17 release from differentiated primary human T-cells (IL-17A HTRF assay); conditions: primary human CD4+ T cells differentiated into Th17 cells, 45-hour incubation, IL-17A in supernatant; read-out: hIL17 IC50
Protocol: C. IL-17 Release from Differentiated Primary Human T-Cells and Cell Viability
Primary human cryopreserved CD4+ T Cells (Lonza) were thawed according to the manufacturer's recommendations and plated either in Lymphocyte Growth Medium-3 (LGM-3) or X-VIVO 20 media (Lonza) in 96-well tissue culture plates at a density of ˜2×10^5 cells per well, and allowed to recover for approximately 4 hours at 37° C. with 5% CO2 in a humidified atmosphere. After the recovery step, DMSO (vehicle) or test compound at doses ranging from 2 to 500 nM or 4 to 1000 nM in a three-fold dilution series was added to the cells. Three replicate wells were tested for each treatment condition. Final DMSO concentration in each well was 0.1%. Immediately after treatment, CD4+ T cells were activated by adding Dynabeads Human T-Activator CD3/CD28 (Life Technologies; bead-to-cell ratio of 1:2.5) and differentiated into Th17 cells by adding a mixture of the following cytokines: transforming growth factor-β (TGF-β, 5 ng/mL), IL-6 (20 ng/mL), IL-23 (20 ng/mL), and IL-1β (10 ng/mL). Undifferentiated control cells received only cytokine IL-2 (50 ng/mL). All human recombinant cytokines were purchased from R&D Systems. Following a 45-hour incubation at 37° C. with 5% CO2 in a humidified atmosphere, the plates were centrifuged for 3 minutes at 250×g, and half of the supernatant was transferred to anew plate to be used in the IL-17A assay (see below). Cell viability was assessed in the original plate using the CyQuant Direct Assay (Life Technologies). CyQuant reagent (an amount equal to 10% of remaining media volume) was added to the wells, and the plates were then incubated at 37° C. for 75 min. Fluorescence was read on a SpectraMax M2e spectrophotometer at 480 nm (excitation) and 535 nm (emission) wavelengths. CyQuant values from test compound samples were normalized to those from DMSO-treated samples. The concentration of IL-17A in the supernatant was measured using the Homogeneous Time-Resolved Fluorescence (HTRF) assay (Cisbio Bioassays) according to the manufacturer's protocol. The assay was performed at room temperature in low volume, solid white 384-well plates (Greiner Bio-One). Samples and standards (serially-diluted human recombinant IL-17A (0 to 5,000 pg/mL concentration range; Cisbio Bioassays) were incubated with the anti-human IL-17A antibody conjugates (the HTRF donor and acceptor pair) for 16 hours and fluorescence was measured using a Pherastar FS microplate reader (BMG Labtech) in the HTRF mode (excitation at 337 nm and emission at 665 nm and 620 nm). IL-17A levels were assessed in duplicate aliquots of supernatant from each well resulting in a total of six readings per test condition. The 665 nm/620 nm signal ratio was calculated and the concentration of IL-17A in each sample was determined by interpolation from the standard curve. The amount of IL-17A from test compound treated samples were normalized to that of the vehicle-treated samples, set to 100%. Data were analyzed using GraphPad Prism (GraphPad Software, La Jolla California USA). Concentrations of test compound were transformed by taking the logarithm of each concentration used. The IC50 values for compound-mediated reduction in IL-17A levels and cell viability were determined by non-linear regression analysis using the log(inhibitor) vs. normalized response with variable slope equation. Inhibition that is closely correlated with reduced viability is considered to be non-specific.

Structure (SMILES) | EC (2-fold) [1] | IC50 [2] | IC50 [3]
C[C@H]1C(=O)C(C#N)=C[C@@]2(C)c3c(c(-c4ccccc4)nn3-c3ccc(-c4ccccc4)cc3)CC[C@H]12 [T21] | 0.161 µM | 80 nM | 19 nM
C[C@H]1C(=O)C(C#N)=C[C@@]2(C)c3nn(-c4ccc(-c5ccccc5)cc4)c(-c4ccccc4)c3CC[C@H]12 [T22] | 1.05 µM | 175 nM | 56 nM
C[C@H]1C(=O)C(C#N)=C[C@@]2(C)c3c(c(-c4ccccc4)nn3-c3cccc4ccccc34)CC[C@H]12 [T23] | 0.19 µM | 118 nM | 89 nM
C[C@H]1C(=O)C(C#N)=C[C@@]2(C)c3nn(-c4cccc5ccccc45)c(-c4ccccc4)c3CC[C@H]12 [T24] | 0.827 µM | 284 nM | 30 nM
CC(C)c1ccc(-n2nc(-c3ccccc3)c3c2[C@]2(C)C=C(C#N)C(=O)[C@H](C)[C@H]2CC3)cc1 [T25] | 0.149 µM | 92 nM | 28 nM
CC(C)c1ccc(-n2nc3c(c2-c2ccccc2)CC[C@@H]2[C@@H](C)C(=O)C(C#N)=C[C@@]32C)cc1 [T26] | 0.944 µM | 104 nM | 61 nM
C[C@H]1C(=O)C(C#N)=C[C@@]2(C)c3c(c(-c4ccccc4)nn3C3CCOCC3)CC[C@H]12 [T27] | 0.204 µM | 132 nM | 61 nM
C[C@H]1C(=O)C(C#N)=C[C@@]2(C)c3nn(C4CCOCC4)c(-c4ccccc4)c3CC[C@H]12 [T28] | 0.719 µM | 90 nM | 136 nM
Cc1ccc(-n2nc(-c3ccccc3)c3c2[C@]2(C)C=C(C#N)C(=O)[C@H](C)[C@H]2CC3)nc1 [T31] | 0.298 µM | 91 nM | 100 nM
Cc1ccc(-n2nc(-c3ccccc3)c3c2[C@]2(C)C=C(C#N)C(=O)[C@H](C)[C@H]2CC3)cn1 [T32] | 0.258 µM | 124 nM | 170 nM
C[C@H]1C(=O)C(C#N)=C[C@@]2(C)c3c(c(-c4ccccc4)nn3-c3cccc(-c4cccnc4)c3)CC[C@H]12 [T34] | 0.245 µM | 87 nM | 87 nM
C[C@H]1C(=O)C(C#N)=C[C@@]2(C)c3c(c(-c4ccccc4)nn3-c3cccc(-c4ccccc4)c3)CC[C@H]12 [T35] | 0.328 µM | 129 nM | 58 nM
C[C@H]1C(=O)C(C#N)=C[C@@]2(C)c3c(c(-c4ccccc4)nn3-c3ccc(-c4ccccc4F)cc3)CC[C@H]12 [T36] | 0.233 µM | 87 nM | 22 nM
C[C@H]1C(=O)C(C#N)=C[C@@]2(C)c3c(c(-c4ccccc4)nn3-c3ccc(-c4cccnc4)cc3)CC[C@H]12 [T37] | 0.167 µM | 32 nM | 24 nM
Cc1noc(C)c1-c1ccc(-n2nc(-c3ccccc3)c3c2[C@]2(C)C=C(C#N)C(=O)[C@H](C)[C@H]2CC3)cc1 [T38] | 0.215 µM | 46 nM | 37 nM
C[C@H]1C(=O)C(C#N)=C[C@@]2(C)c3c(c(-c4ccccc4)nn3-c3ccc(-c4ccncc4)cc3)CC[C@H]12 [T39] | 0.139 µM | 25 nM | 31 nM
C[C@H]1C(=O)C(C#N)=C[C@@]2(C)c3c(c(-c4ccccc4)nn3-c3ccc(-c4cccc(F)c4)cc3)CC[C@H]12 [T40] | 0.238 µM | 80 nM | 23 nM
Cc1ccc(-c2ccc(-n3nc(-c4ccccc4)c4c3[C@]3(C)C=C(C#N)C(=O)[C@H](C)[C@H]3CC4)cc2)cc1 [T41] | 0.249 µM | 83 nM | 25 nM
C[C@H]1C(=O)C(C#N)=C[C@@]2(C)c3c(c(-c4ccccc4)nn3-c3ccc(-c4ccc(CO)cc4)cc3)CC[C@H]12 [T42] | 0.13 µM | 33 nM | 35 nM
C[C@H]1C(=O)C(C#N)=C[C@@]2(C)c3c(c(-c4ccccc4)nn3-c3ccc(-c4ccccc4CO)cc3)CC[C@H]12 [T43] | 0.174 µM | 53 nM | 43 nM
Cc1ccccc1-c1ccc(-n2nc(-c3ccccc3)c3c2[C@]2(C)C=C(C#N)C(=O)[C@H](C)[C@H]2CC3)cc1 [T44] | 0.242 µM | 83 nM | 41 nM
C[C@H]1C(=O)C(C#N)=C[C@@]2(C)c3c(c(-c4ccccc4)nn3-c3ccc(-c4cccc(CO)c4)cc3)CC[C@H]12 [T45] | 0.147 µM | 44 nM | 22 nM
COc1ccc(-c2ccc(-n3nc(-c4ccccc4)c4c3[C@]3(C)C=C(C#N)C(=O)[C@H](C)[C@H]3CC4)cc2)cc1 [T46] | 0.219 µM | 65 nM | 20 nM
